Experiments:
[1] = system: MDA-MB-231; assay: Cytotoxicity against human MDA-MB-231 cells assessed as growth inhibition after 48 hrs by MTT assay; type: functional, cell-based; conditions: MDA-MB-231, 48 h
[2] = system: MCF7; assay: Cytotoxicity against human MCF7 cells assessed as growth inhibition after 48 hrs by MTT assay; type: functional, cell-based; conditions: MCF7, 48 h
[3] = system: MCF7; assay: Induction of apoptosis in human MCF7 cells assessed as viable cells at 2 uM after 24 hrs by Annexin-V FITC/propidium iodide staining-based FACS analysis (reference value: 93.9%); type: functional; conditions: MCF7, 24 h, read-out: Activity
[4] = system: MCF7; assay: Induction of intrinsic apoptosis in human MCF7 cells assessed as effect on mitochondrial membrane depolarization at 2 uM after 18 hrs by DiOC6 staining-based FACS analysis (reference value: 2%); type: functional
[5] = system: MCF7; assay: Induction of apoptosis in human MCF7 cells assessed as late apoptotic cells at 2 uM after 24 hrs by Annexin-V FITC/propidium iodide staining-based FACS analysis (reference value: 5.4%); type: functional
[6] = system: MCF7; assay: Cell cycle arrest in human MCF7 cells assessed as accumulation at S phase at 2 uM after 48 hrs by flow cytometric analysis (reference value: 57.7%); type: functional
[7] = system: MCF7; assay: Cell cycle arrest in human MCF7 cells assessed as accumulation at G0/G1 phase at 2 uM after 48 hrs by flow cytometric analysis (reference value: 34.2%); type: functional
[8] = system: MCF7; assay: Cell cycle arrest in human MCF7 cells assessed as accumulation at G2/M phase at 2 uM after 48 hrs by flow cytometric analysis (reference value: 8.1%); type: functional
[9] = system: MCF7; assay: Cell cycle arrest in human MCF7 cells assessed as accumulation at G2/M phase at 2 uM after 24 hrs by flow cytometric analysis (reference value: 2.35%); type: functional
[10] = system: MCF7; assay: Induction of apoptosis in human MCF7 cells assessed as early apoptotic cells at 2 uM after 24 hrs by Annexin-V FITC/propidium iodide staining-based FACS analysis (reference value: 0.5%); type: functional
[11] = system: MCF7; assay: Cell cycle arrest in human MCF7 cells assessed as accumulation at S phase at 2 uM after 24 hrs by flow cytometric analysis (reference value: 79.1%); type: functional
[12] = system: MCF7; assay: Induction of intrinsic apoptosis in human MCF7 cells assessed as effect on mitochondrial membrane depolarization at 2 uM after 5 hrs by DiOC6 staining-based FACS analysis relative to control; type: functional
[13] = system: MCF7; assay: Induction of intrinsic apoptosis in human MCF7 cells assessed as effect on mitochondrial membrane depolarization by measuring mean fluorescence intensity at 2 uM after 18 hrs by DiOC6 staining-based FACS analysis (reference value: 463); type: functional
[14] = system: MCF7; assay: Cell cycle arrest in human MCF7 cells assessed as accumulation at G0/G1 phase at 2 uM after 24 hrs by flow cytometric analysis (reference value: 18.4%); type: functional
[15] = system: MCF7; assay: Induction of apoptosis in human MCF7 cells assessed as necrotic cells at 2 uM after 24 hrs by Annexin-V FITC/propidium iodide staining-based FACS analysis (reference value: 0.2%); type: functional

Compound | IC50 [1] | IC50 [2] | further results
COc1cc(-c2cc(/C=C3\CCCCC3=O)[nH]n2)cc(OC)c1OC | 17.8 µM | 10.1 µM | –
O=C(/C=C/c1cc(-c2ccc3c(c2)OCO3)n[nH]1)c1ccc2c(c1)OCO2 | 3.3 µM | 2.1 µM | –
Nc1ccc(C(=O)/C=C/c2cc(-c3ccc4c(c3)OCO4)n[nH]2)cc1 | 5.1 µM | 3.5 µM | –
COc1cc(-c2cc(/C=C3\CCc4ccccc4C3=O)[nH]n2)cc(OC)c1OC | 9.5 µM | 8.5 µM | –
O=C(/C=C/c1cc(-c2ccc3c(c2)OCO3)n[nH]1)c1ccc(Cl)c(Cl)c1 | 14.8 µM | 10.8 µM | –
COc1cc(-c2cc(/C=C/C(=O)c3ccccc3)[nH]n2)cc(OC)c1OC | 2.3 µM | 2.1 µM | –
COc1ccc(C(=O)/C=C/c2cc(-c3cc(OC)c(OC)c(OC)c3)n[nH]2)cc1F | 2.7 µM | 3 µM | –
COc1ccc(/C=C\c2cc(OC)c(OC)c(OC)c2)cc1O [COMBRETASTATIN A4] | 0.17 µM | 0.12 µM | viability at 2 µM [3]: 75.8%; Activity [4]: 46%; Activity [5]: 16.8%; Activity [6]: 12%; Activity [7]: 2.4%; Activity [8]: 85.5%; Activity [9]: 56.3%; Activity [10]: 6.1%; Activity [11]: 46.3%; Activity [12]: 7.6%; Flu intensity [13]: 558; Activity [14]: 0%; Activity [15]: 1.3%
O=C(/C=C/c1cc(-c2ccc3c(c2)OCO3)n[nH]1)c1ccc(Cl)cc1 | 17.5 µM | 15 µM | –
COc1ccc2c(c1)C/C(=C\c1cc(-c3cc(OC)c(OC)c(OC)c3)n[nH]1)C2=O | 2 µM | 2.1 µM | –
COc1cc(-c2cc(/C=C/C(C)=O)[nH]n2)cc(OC)c1OC | 27.3 µM | 20.1 µM | –
O=C1CCCC/C1=C\c1cc(-c2ccc3c(c2)OCO3)n[nH]1 | 11.8 µM | 15.1 µM | –
COc1ccc2c(c1)C/C(=C\c1cc(-c3ccc4c(c3)OCO4)n[nH]1)C2=O | 4.1 µM | 2.7 µM | –
CC(=O)/C=C/c1cc(-c2ccc3c(c2)OCO3)n[nH]1 | 20.2 µM | 21.6 µM | –
O=C(/C=C/c1cc(-c2ccc3c(c2)OCO3)n[nH]1)c1ccc(F)c(F)c1 | 12.1 µM | 8.1 µM | –
COc1cc(-c2cc(/C=C/C(=O)c3ccc(Cl)cc3)[nH]n2)cc(OC)c1OC | 26 µM | 11.6 µM | –
COc1cc(-c2cc(/C=C3\Cc4ccccc4C3=O)[nH]n2)cc(OC)c1OC | 7.1 µM | 4.8 µM | –
COc1cc2c(cc1OC)C(=O)/C(=C/c1cc(-c3cc(OC)c(OC)c(OC)c3)n[nH]1)C2 | 2.5 µM | 2 µM | –
COc1ccc(C(=O)/C=C/c2cc(-c3ccc4c(c3)OCO4)n[nH]2)cc1F | 15.9 µM | 13.5 µM | –
COc1ccc(-c2cc(/C=C/C(=O)c3ccc4c(c3)OCO4)[nH]n2)cc1 | 3.3 µM | 2.5 µM | –
O=C1/C(=C/c2cc(-c3ccc4c(c3)OCO4)n[nH]2)Cc2ccccc21 | 8.3 µM | 5.1 µM | –
O=C(/C=C/c1cc(-c2ccc3c(c2)OCO3)n[nH]1)c1ccccc1 | 12.1 µM | 8 µM | –
COc1ccc(C(=O)/C=C/c2cc(-c3ccc4c(c3)OCO4)n[nH]2)cc1 | 3.5 µM | 3.5 µM | –
COc1ccc(-c2cc(/C=C/C(=O)c3cc(OC)c(OC)c(OC)c3)[nH]n2)cc1 | 2.4 µM | 2 µM | –
O=C1/C(=C/c2cc(-c3ccc4c(c3)OCO4)n[nH]2)CCc2ccccc21 | 12.6 µM | 9.9 µM | –
COc1cccc2c1C(=O)c1c(O)c3c(c(O)c1C2=O)C[C@@](O)(C(=O)CO)C[C@@H]3O[C@H]1C[C@H](N)[C@H](O)[C@H](C)O1.Cl [DOXORUBICIN HYDROCHLORIDE] | – | – | Activity [6]: 40.1%; Activity [7]: 59.1%; Activity [8]: 0.8%; Activity [9]: 1.2%; Activity [11]: 16.2%; Activity [14]: 82.5%

— ChEMBL document CHEMBL4138123, “Design, synthesis and biological evaluation of novel pyrazolochalcones as potential modulators of PI3K/Akt/mTOR pathway and inducers of apoptosis in breast cancer cells” (Eur J Med Chem, 2017)
